Experimental data from the supplement of paper PMC4862054.

Key:
Assay in all cases: normalised viability (% of control), CellTiter-Blue; higher = more viable cells (about 100 = DMSO control)
Conditions in all cases: incubation time: 72 h
CAL-85-1 = tested on: CAL-85-1
Procedure, shortened: (§1)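 Compound dissolved in 5 µl medium was pre-loaded into 384-well plates, and breast cancer cell lines in 20 µl suspension were seeded on top and incubated 72 h. After adding 2.5 µl CellTiter-Blue reagent for 2 h at 37 °C, fluorescence was read at 560/590 nm. Plates were normalised to vehicle (100) and a positive kill control (0), with Z'-factor quality control. Each value is normalised viability at a single listed concentration from the series.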

MDA-MB-453 = tested on: MDA-MB-453
Procedure, shortened: as §1

CAL-148 = tested on: CAL-148
Procedure, shortened: as §1

HCC1143 = tested on: HCC1143
Procedure, shortened: as §1

MDA-MB-231 = tested on: MDA-MB-231
Procedure, shortened: as §1

CAL-120 = tested on: CAL-120
Procedure, shortened: as §1

CAL-51 = tested on: CAL-51
Procedure, shortened: as §1

Hs578T = tested on: Hs578T
Procedure, shortened: as §1

DU-4475 = tested on: DU-4475
Procedure, shortened: as §1

HDQ-P1 = tested on: HDQ-P1
Procedure, shortened: as §1

BT-549 = tested on: BT-549
Procedure, shortened: as §1

BT-474 = tested on: BT-474
Procedure, shortened: as §1

MDA-MB-468 = tested on: MDA-MB-468
Procedure, shortened: as §1

HCC1937 = tested on: HCC1937
Procedure, shortened: as §1

MFM-223 = tested on: MFM-223
Procedure, shortened: as §1

SK-BR-3 = tested on: SK-BR-3
Procedure, shortened: as §1

CC[C@@H]1C(=O)OC[C@@H]1Cc1cncn1C [Pilocarpine]
normalised viability [%]
Conditions	12 nM	40 nM	120 nM	400 nM	4000 nM	40000 nM
BT-474	–	108	–	–	158	116
BT-549	–	95.5	–	–	114	100
CAL-51	110	–	103	98.2	–	–
CAL-85-1	98.1	–	98.3	101	–	–
CAL-120	–	85.2	–	–	107	113
CAL-148	95.5	–	101	104	–	–
DU-4475	103	–	92.1	107	–	–
HCC1143	–	87.5	–	–	90.3	88.4
HCC1937	–	109	–	–	107	97.4
HDQ-P1	123	–	137	118	–	–
Hs578T	–	101	–	–	102	108
MDA-MB-231	–	94.9	–	–	116	118
MDA-MB-453	118	–	93.5	100	–	–
MDA-MB-468	–	95.2	–	–	99	109
MFM-223	–	96.4	–	–	90.7	63.7
SK-BR-3	–	106	–	–	115	136

C[C@]12CC[C@@H]3c4ccc(OC(=O)N(CCCl)CCCl)cc4CC[C@H]3[C@@H]1CC[C@@H]2O [Estramustine]
normalised viability [%]
Conditions	0.297 nM	0.99 nM	2.97 nM	9.9 nM	99 nM	990 nM
BT-474	–	116	–	–	115	116
BT-549	–	82.7	–	–	89.6	87.2
CAL-51	88.7	–	86.3	86.7	–	–
CAL-85-1	100	–	90.9	101	–	–
CAL-120	–	113	–	–	107	105
CAL-148	118	–	101	106	–	–
DU-4475	93.6	–	99.3	108	–	–
HCC1143	–	109	–	–	106	114
HCC1937	–	88.9	–	–	75	92.2
HDQ-P1	107	–	106	109	–	–
Hs578T	–	113	–	–	100	98
MDA-MB-231	–	100	–	–	109	119
MDA-MB-453	89.2	–	102	101	–	–
MDA-MB-468	–	102	–	–	103	117
MFM-223	–	101	–	–	98.3	103
SK-BR-3	–	99.1	–	–	97.5	101
